Data from PubChem BioAssay AID2202554 (NIEHS Division of Translational Toxicology (DTT)).
Results filed as inconclusive are left out. Activity calls are given as the source filed them. The rule behind the calls is not given here.

Each molecule was assayed on S. typhimurium/E. coli reverse mutation, colony counts (assay: Bacterial reverse mutation test (aka Ames test) summary data).
How it was run: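 Revertant colony counts on plates, compared with untreated controls, after about two days of growth. Exposure with or without liver S9 (rat/hamster/mouse), dose range per strain, 20-min 37° C preincubation or direct plate incorporation. Strains: his⁻ Salmonella, trp⁻ E. coli WP2 uvrA pKM101.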
With `CCCCCCCC(=O)O` the outcome was “inactive; negative”.
For `C=CC=O`, the outcome was “active; weakly positive”.
For `CCCCOC(=O)c1ccc(O)cc1`, the outcome was “inactive; negative”.
With `Cc1nc2ccc(Cl)cc2[nH]1` the outcome was “active; positive”.
With `C=C(C)C(=O)OCC` the outcome was “inactive; negative”.
`CCCNC(=O)NS(=O)(=O)c1ccc(Cl)cc1` was tested, and the outcome was “inactive; negative”.
For `CC(=O)c1ccc(Cl)c(Cl)c1Cl`, the outcome was “active; positive”.
With `Cc1ccc(C)c(N)c1` the outcome was “active; positive”.
`O=Cc1c(Cl)cccc1Cl` was tested, and the outcome was “inactive; negative”.
For `CNNC`, the outcome was “inactive; negative”.
`Cc1cc(-c2ccc(N)c(C)c2)ccc1N` was tested, and the outcome was “active; positive”.
In the case of `Cc1ccc2c(c1N)C(=O)c1ccccc1C2=O`, the outcome is reported as “active; positive”.
In the case of `CC(=O)Nc1ccccc1`, the outcome is reported as “inactive; negative”.
With `O=C1OC2(c3ccc(O)cc3Oc3cc(O)ccc32)c2ccccc21` the outcome was “inactive; negative”.
`CCC#N` was tested, and the outcome was “inactive; negative”.
In the case of `Nc1ccc(S(=O)(=O)O)cc1`, the outcome is reported as “inactive; negative”.
For `N#CC(O)c1ccccc1` (stereo not drawn), the outcome was “inactive; negative”.
With `O=C(O)CC(C(=O)O)C(CC(=O)O)C(=O)O` (stereo not drawn) the outcome was “active; positive”.
With `O=C1c2ccccc2-c2ccc3c4ccc5c6c(ccc(c7ccc1c2c73)c64)C(=O)c1ccccc1-5` the outcome was “active; weakly positive”.
With `SCCc1cnccn1` the outcome was “inactive; negative”.
For `Nc1nc2ccccc2[nH]1`, the outcome was “inactive; negative”.
`Cc1cc(C)c(S(=O)(=O)O)cc1N=Nc1cc(S(=O)(=O)O)c2ccccc2c1O` was tested, and the outcome was “inactive; negative”.
For `CCCCCCCC/C=C\CCCCCCCC(=O)N(CCO)CCO`, the outcome was “inactive; negative”.
For `C1COC1`, the outcome was “active; positive”.
For `COCCOC(=O)c1ccccc1C(=O)OCCOC`, the outcome was “active; positive”.
With `CC(=O)O[C@H](CC(=O)[O-])C[N+](C)(C)C` the outcome was “inactive; negative”.
With `c1ccc2occc2c1` the outcome was “inactive; negative”.
For `Nc1ccc(O)c(C(=O)O)c1`, the outcome was “inactive; negative”.
For `Cc1ccc2oc(=O)ccc2c1`, the outcome was “inactive; negative”.
`O=C1OC2(c3ccccc31)c1cc(Br)c(O)c(Br)c1Oc1c2cc(Br)c(O)c1Br` was tested, and the outcome was “active; positive”.
With `Clc1c(Cl)c(Cl)c2c(c1Cl)Oc1c(Cl)c(Cl)c(Cl)c(Cl)c1O2` the outcome was “inactive; negative”.
`O=C1[O][Bi][O]c2ccccc21` was tested, and the outcome was “inactive; negative”.
For `C=CCOC(=O)c1ccccc1N`, the outcome was “inactive; negative”.
For `CC(C)CCON=O`, the outcome was “active; positive”.
In the case of `NCCCCCCCCCCC(=O)O`, the outcome is reported as “inactive; negative”.
`COc1c(Cl)c(Cl)c(Cl)c(Cl)c1Cl` was tested, and the outcome was “active; positive”.
In the case of `OCC1CCC(CO)CC1` (stereo not drawn), the outcome is reported as “inactive; negative”.
In the case of `CCCCCCCC/C=C\CCCCCCCC(=O)OC`, the outcome is reported as “inactive; negative”.
In the case of `ClC=C(Cl)Cl`, the outcome is reported as “inactive; negative”.
With `Nc1ccccc1O` the outcome was “active; positive”.
With `CCOc1ccc(N=Nc2ccc(-c3ccc(N=Nc4c(O)ccc5cc(S(=O)(=O)O)cc(S(=O)(=O)O)c45)c(C)c3)cc2C)cc1` the outcome was “inactive; negative”.
`CCOC(C)(C)C` was tested, and the outcome was “inactive; negative”.
In the case of `CC(=O)OO`, the outcome is reported as “inactive; negative”.
With `N=C1C=CC(=C(c2ccc(N)cc2)c2ccc(N)cc2)C=C1` the outcome was “active; positive”.
With `O=C(O)COc1ccccc1` the outcome was “inactive; negative”.
In the case of `C=CCSSCCC`, the outcome is reported as “inactive; negative”.
In the case of `O=CCCCC=O`, the outcome is reported as “active; positive”.
For `C=CC(=O)OCCN(C)C`, the outcome was “inactive; negative”.
In the case of `Nc1nc2ccc([N+](=O)[O-])cc2s1`, the outcome is reported as “active; positive”.
For `O=Cc1ccc(CO)o1`, the outcome was “active; weakly positive”.
In the case of `Clc1ccc(C(c2ccc(Cl)cc2)c2ccc(Cl)cc2)cc1`, the outcome is reported as “inactive; negative”.
With `COC(=O)c1ccccc1C(=O)OC` the outcome was “inactive; negative”.
With `CSSC` the outcome was “inactive; negative”.
